This is an account of results in patent US12558428B2, “Heterobifunctional compounds and their use in treating disease” (Halda Therapeutics OpCo, Inc., priority 2024, dated 2026).

Broadly, the GI50 is the concentration at which growth is held to half of that of the control.

Assay type in all cases: cell-based
Test [1] concerns T-Rex 293 cells having increased expression of estrogen receptor alpha protein. The test can be described thus: Cellular growth inhibition assay, T-Rex 293 cells, (+) doxycycline. The following applies: T-REx-293, 72 h, Table 7-A; T-Rex 293 cells with doxycycline (increased ERα expression); 72 hours; CellTiter-Glo; read-out: (+) Dox GI50. The essentials:
(§1)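 Cells of an inducible ERα-expressing T-Rex 293 clone are seeded in charcoal-dextran FBS medium with or without 3 ng/mL doxycycline, then treated after 24 h with compound dilutions (0.5% DMSO) for 72 h. Growth inhibition is measured by CellTiter-Glo luminescence and expressed as GI50.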
On the technique in general: ATP-based viability assays read luminescence as a measure of living cells.

The subject of test [2] is T-Rex 293 cells lacking increased expression of estrogen receptor alpha protein. The test can be described thus: Cellular growth inhibition assay, T-Rex 293 cells, (−) doxycycline. The following applies: T-REx-293, 72 h, Table 7-A; T-Rex 293 cells without doxycycline (lacking increased ERα expression); 72 hours; CellTiter-Glo; read-out: (−) Dox GI50. The essentials:
as §1

Test [3] relates to MCF7 cells (ATCC #HTB-22). Nature of the test: Cellular growth inhibition assay, MCF7 cells purchased from ATCC. The following applies: Homo sapiens, MCF7, 144 h, Table 8-A; MCF7 cells purchased from ATCC; six days; CellTiter-Glo; read-out: GI50. The essentials: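 GI50 values come from a four-parameter fit of CellTiter-Glo 2.0 luminescence after six days of compound exposure at 37° C. Seeding density depended on the source: 225 cells/well for ECACC MCF7, 1,500 for ATCC. Medium was RPMI 1640 with 10% FBS and 0.2 U/ml insulin.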

Each structure is given as a SMILES string.

With `Cc1sc2c(c1C)C(c1ccc(N3CCC(O)(CN4CCN(c5ccc([C@@H]6c7ccc(O)cc7CC[C@@H]6c6ccc(F)cc6F)cc5)CC4)CC3)cc1)=N[C@@H](Cc1ncco1)c1nnc(C)n1-2` [III-259], the GI50 in test [1] was below 50 nM; in test [2] it was 500 to 2500 nM; in test [3], below 50 nM.

On to `Cc1sc2c(c1C)C(c1ccc(C3CN(C[C@H]4C[C@@H](CN5CC(c6ccc([C@@H]7c8ccc(O)cc8CC[C@@H]7c7ccccc7)cc6)C5)C4)C3)cc1)=N[C@@H](C)c1nnc(C)n1-2` [III-260], for which the values for the GI50 in test [1], in test [2] and in test [3] were below 50 nM, 500 to 2500 nM and 50 to 500 nM, respectively.

As to `Cc1sc2c(c1C)C(c1ccc(C3CN(C[C@H]4C[C@H](CN5CC(c6ccc([C@@H]7c8ccc(O)cc8CC[C@@H]7c7ccccc7)cc6)C5)C4)C3)cc1)=N[C@@H](C)c1nnc(C)n1-2` [III-261], the GI50 in test [1] is below 50 nM; in test [2], 500 to 2500 nM; in test [3], 50 to 500 nM.

Consider `Cc1sc2c(c1C)C(c1ccc(N3CC4(CC(CN5CCN(c6ccc([C@H]7c8ccc(O)cc8CC[C@H]7c7ccc(F)cc7)cc6)CC5)C4)C3)cc1)=N[C@@H](C)c1nnc(C)n1-2` [III-262], for which the values for the GI50 in test [1], in test [2] and in test [3] were 50 to 500 nM, 500 to 2500 nM and 50 to 500 nM, respectively.

As for `Cc1sc2c(c1C)C(c1ccc(N3CC4(CC(CN5CCN(c6ccc([C@@H]7c8ccc(O)cc8CC[C@@H]7c7ccc(F)cc7)cc6)CC5)C4)C3)cc1)=N[C@@H](C)c1nnc(C)n1-2` [III-263], the GI50 in test [1] is below 50 nM; in test [2], 500 to 2500 nM; in test [3], below 50 nM.

For the compound `Cc1sc2c(c1C)C(c1ccc(N3CCC(O)(CC4CCN(c5ccc([C@@H]6c7ccc(B(O)O)cc7CC[C@@H]6c6ccccc6)cc5)CC4)CC3)cc1)=N[C@@H](C)c1nnc(C)n1-2` [III-264], the values for the GI50 in test [1], in test [2] and in test [3] were below 50 nM, 500 to 2500 nM and below 50 nM, respectively.

On to `Cc1sc2c(c1C)C(c1ccc(N3CC4(CCC(CN5CCN(c6ccc([C@@H]7c8ccc(O)cc8CC[C@@H]7c7ccccc7)cc6Cl)CC5)CC4)C3)cc1)=N[C@@H](C)c1nnc(C)n1-2` [III-265], for which the GI50 was 50 to 500 nM in test [1], above 2500 nM in test [2] and 50 to 500 nM in test [3].

Take `Cc1sc2c(c1C)C(c1ccc(N3CC4(CCC(O)(CN5CCN(c6cc(F)c([C@@H]7c8ccc(O)cc8CC[C@@H]7c7ccc(F)cc7)c(F)c6)CC5)CC4)C3)cc1)=N[C@@H](C)c1nnc(C)n1-2` [III-266]: the values for the GI50 in test [1], in test [2] and in test [3] were below 50 nM, 500 to 2500 nM and below 50 nM, respectively.

Take `Cc1sc2c(c1C)C(c1ccc(N3CC4(CCC(O)(CN5CCC(c6cc(F)c([C@H]7c8ccc(O)cc8CC[C@H]7c7ccc(F)cc7)c(F)c6)CC5)CC4)C3)cc1)=N[C@@H](C)c1nnc(C)n1-2` [III-267]: the figures for the GI50 in test [1], in test [2] and in test [3] were 50 to 500 nM, above 2500 nM and 50 to 500 nM, respectively.

In the case of `Cc1sc2c(c1C)C(c1ccc(N3CC4(C3)CC(O)(CN3CCN(c5ccc([C@@H]6c7ccc(O)cc7CC[C@@H]6c6ccccc6)cc5)CC3)C4)cc1)=N[C@@H](C)c1nnc(C)n1-2` [III-268], the results for the 50% growth inhibitory concentration (GI50) in test [1], in test [2] and in test [3] were below 50 nM, 500 to 2500 nM and below 50 nM, respectively.

On to `Cc1sc2c(c1C)C(c1ccc(N3CCC(O)(CN4CCN(c5ccc([C@H]6c7ccc(O)cc7CC[C@H]6c6ccc(F)c(F)c6)c(F)c5)CC4)CC3)cc1)=N[C@@H](C)c1nnc(C)n1-2` [III-269], for which the GI50 in test [1], in test [2] and in test [3] was 50 to 500 nM throughout.

For `Cc1sc2c(c1C)C(c1ccc(N3CCC(O)(CN4CCN(c5ccc([C@@H]6c7ccc(O)cc7CC[C@@H]6c6ccc(F)c(F)c6)c(F)c5)CC4)CC3)cc1)=N[C@@H](C)c1nnc(C)n1-2` [III-270], the values for the GI50 in test [1], in test [2] and in test [3] were below 50 nM, 500 to 2500 nM and 50 to 500 nM, respectively.

For `Cc1sc2c(c1C)C(c1ccc(N3CCC(O)(CN4CCN(c5ccc([C@H]6c7ccc(O)cc7CC[C@H]6c6cccc(F)c6F)c(F)c5)CC4)CC3)cc1)=N[C@@H](C)c1nnc(C)n1-2` [III-271], the GI50 in test [1], in test [2] and in test [3] was 50 to 500 nM throughout.

`Cc1sc2c(c1C)C(c1ccc(N3CCC(O)(CN4CCN(c5ccc([C@@H]6c7ccc(O)cc7CC[C@@H]6c6cccc(F)c6F)c(F)c5)CC4)CC3)cc1)=N[C@@H](C)c1nnc(C)n1-2` [III-272]: the values for the GI50 in test [1], in test [2] and in test [3] were below 50 nM, 500 to 2500 nM and below 50 nM, respectively.

Regarding `Cc1sc2c(c1C)C(c1ccc(N3CCC(O)(CN4CCN(c5ccc([C@H]6c7ccc(O)cc7CC[C@H]6c6cc(F)ccc6F)c(F)c5)CC4)CC3)cc1)=N[C@@H](C)c1nnc(C)n1-2` [III-273], the GI50 in test [1], in test [2] and in test [3] was 50 to 500 nM throughout.

Regarding `Cc1sc2c(c1C)C(c1ccc(N3CCC(O)(CN4CCN(c5ccc([C@@H]6c7ccc(O)cc7CC[C@@H]6c6cc(F)ccc6F)c(F)c5)CC4)CC3)cc1)=N[C@@H](C)c1nnc(C)n1-2` [III-274], the results for the GI50 in test [1], in test [2] and in test [3] were below 50 nM, 500 to 2500 nM and below 50 nM, respectively.

For the compound `Cc1sc2c(c1C)C(c1ccc(N3CC4(CC(CN5CCN(c6cc(F)c([C@@H]7c8ccc(O)cc8CC[C@@H]7c7ccccc7)c(F)c6)CC5)C4)C3)cc1)=N[C@@H](C)c1nnc(C)n1-2` [III-277], the GI50 in test [1] was below 50 nM; in test [2], 500 to 2500 nM; in test [3], below 50 nM.

Turning to `Cc1sc2c(c1C)C(c1ccc(N3CC4(CC(CN5CCN(c6cc(F)c([C@H]7c8ccc(O)cc8CC[C@H]7c7ccccc7)c(F)c6)CC5)C4)C3)cc1)=N[C@@H](C)c1nnc(C)n1-2` [III-278], the GI50 lay within 50 to 500 nM in test [1], 500 to 2500 nM in test [2] and 50 to 500 nM in test [3].

For `Cc1sc2c(c1C)C(c1ccc(N3CC4(C3)CC(O)(CN3CCN(c5cc(F)c([C@@H]6c7ccc(O)cc7CC[C@@H]6c6ccc(F)cc6)c(F)c5)CC3)C4)cc1)=N[C@@H](C)c1nnc(C)n1-2` [III-279], the figures for the GI50 in test [1], in test [2] and in test [3] were below 50 nM, 500 to 2500 nM and below 50 nM, respectively.

Consider `Cc1sc2c(c1C)C(c1ccc(N3CC4(C3)CC(O)(CN3CCN(c5cc(F)c([C@H]6c7ccc(O)cc7CC[C@H]6c6ccc(F)cc6)c(F)c5)CC3)C4)cc1)=N[C@@H](C)c1nnc(C)n1-2` [III-280], for which the GI50 was in the range of 50 to 500 nM in test [1], 500 to 2500 nM in test [2] and 50 to 500 nM in test [3].

In the case of `Cc1sc2c(c1C)C(c1ccc(N3CC4(CC(CN5CCN(c6ccc([C@H]7c8ccc(O)cc8CC[C@H]7c7ccc(F)cc7)cc6F)CC5)C4)C3)cc1)=N[C@@H](C)c1nnc(C)n1-2` [III-281], the GI50 fell in the range of 50 to 500 nM in test [1], 500 to 2500 nM in test [2] and 500 to 2500 nM in test [3].

As to `Cc1sc2c(c1C)C(c1ccc(N3CC4(CC(CN5CCN(c6ccc([C@@H]7c8ccc(O)cc8CC[C@@H]7c7ccc(F)cc7)cc6F)CC5)C4)C3)cc1)=N[C@@H](C)c1nnc(C)n1-2` [III-282], the GI50 in test [1] was below 50 nM; in test [2], 50 to 500 nM; in test [3] it was below 50 nM.

As for `Cc1cc([C@H]2c3ccc(O)cc3CC[C@H]2c2ccc(F)cc2)ccc1N1CCN(CC2(O)CCN(c3ccc(C4=N[C@@H](C)c5nnc(C)n5-c5sc(C)c(C)c54)cc3)CC2)CC1` [III-283], the GI50 in test [1] fell in the range of 50 to 500 nM; in test [2], 500 to 2500 nM; in test [3] it was 50 to 500 nM.

In the case of `Cc1cc([C@@H]2c3ccc(O)cc3CC[C@@H]2c2ccc(F)cc2)ccc1N1CCN(CC2(O)CCN(c3ccc(C4=N[C@@H](C)c5nnc(C)n5-c5sc(C)c(C)c54)cc3)CC2)CC1` [III-284], the GI50 in test [1] fell in the range of 50 to 500 nM; in test [2] it was 500 to 2500 nM; in test [3], 50 to 500 nM.

As to `Cc1cc(N2CCN(CC3(O)CCN(c4ccc(C5=N[C@@H](C)c6nnc(C)n6-c6sc(C)c(C)c65)cc4)CC3)CC2)c(F)cc1[C@H]1c2ccc(O)cc2CC[C@H]1c1ccccc1` [III-285], the GI50 in test [1], in test [2] and in test [3] was 50 to 500 nM each time.

Regarding `Cc1cc(N2CCN(CC3(O)CCN(c4ccc(C5=N[C@@H](C)c6nnc(C)n6-c6sc(C)c(C)c65)cc4)CC3)CC2)c(F)cc1[C@@H]1c2ccc(O)cc2CC[C@@H]1c1ccccc1` [III-286], the GI50 in test [1] was below 50 nM; in test [2] it was 500 to 2500 nM; in test [3], below 50 nM.

Turning to `Cc1cc([C@@H]2c3ccc(O)cc3CC[C@@H]2c2ccccc2)c(F)cc1N1CCN(CC2(O)CCN(c3ccc(C4=N[C@@H](C)c5nnc(C)n5-c5sc(C)c(C)c54)cc3)CC2)CC1` [III-287], the figures for the GI50 in test [1], in test [2] and in test [3] were below 50 nM, 500 to 2500 nM and 50 to 500 nM, respectively.

Consider `Cc1cc([C@H]2c3ccc(O)cc3CC[C@H]2c2ccccc2)c(F)cc1N1CCN(CC2(O)CCN(c3ccc(C4=N[C@@H](C)c5nnc(C)n5-c5sc(C)c(C)c54)cc3)CC2)CC1` [III-288], for which the results for the GI50 in test [1], in test [2] and in test [3] were 50 to 500 nM, 500 to 2500 nM and 50 to 500 nM, respectively.

Turning to `Cc1sc2c(c1C)C(c1ccc(N3CCC(O)(CN4CCN(c5ccc([C@@H]6c7ccc(O)cc7CC[C@@H]6c6cccc(F)c6)c(F)c5)CC4)CC3)cc1)=N[C@@H](C)c1nnc(C)n1-2` [III-289], the GI50 in test [1] is below 50 nM; in test [2], 500 to 2500 nM; in test [3] it was below 50 nM.
